# Measured values reported in US12275731B2, “Azaindole inhibitors of wild-type and mutant forms of LRRK2” (DANA-FARBER CANCER INSTITUTE, INC., priority 2018, dated 2025).
# Experiments:
# Test in all cases: KinomeScan profiling
# Type in all cases: binding
# [1] = target: T1, ABL1(F317L)-phosphorylated (Homo sapiens, UniProt P00519, F317L); conditions: read-out: % control
# T1 construct: purchased KinomeScan®
# Outline: (§1)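 Single-point competition binding screen: 1 μM, DMSO, 468 kinases. Results reported as % control from RLU, normalised to DMSO and positive-control wells. Activity threshold: <35% control.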
# EPHA1 = target: T2, EPHA1 (Homo sapiens, UniProt P21709); conditions: EPHA1, 1 μM; read-out: % control
# T2 sequence (P21709 26-976): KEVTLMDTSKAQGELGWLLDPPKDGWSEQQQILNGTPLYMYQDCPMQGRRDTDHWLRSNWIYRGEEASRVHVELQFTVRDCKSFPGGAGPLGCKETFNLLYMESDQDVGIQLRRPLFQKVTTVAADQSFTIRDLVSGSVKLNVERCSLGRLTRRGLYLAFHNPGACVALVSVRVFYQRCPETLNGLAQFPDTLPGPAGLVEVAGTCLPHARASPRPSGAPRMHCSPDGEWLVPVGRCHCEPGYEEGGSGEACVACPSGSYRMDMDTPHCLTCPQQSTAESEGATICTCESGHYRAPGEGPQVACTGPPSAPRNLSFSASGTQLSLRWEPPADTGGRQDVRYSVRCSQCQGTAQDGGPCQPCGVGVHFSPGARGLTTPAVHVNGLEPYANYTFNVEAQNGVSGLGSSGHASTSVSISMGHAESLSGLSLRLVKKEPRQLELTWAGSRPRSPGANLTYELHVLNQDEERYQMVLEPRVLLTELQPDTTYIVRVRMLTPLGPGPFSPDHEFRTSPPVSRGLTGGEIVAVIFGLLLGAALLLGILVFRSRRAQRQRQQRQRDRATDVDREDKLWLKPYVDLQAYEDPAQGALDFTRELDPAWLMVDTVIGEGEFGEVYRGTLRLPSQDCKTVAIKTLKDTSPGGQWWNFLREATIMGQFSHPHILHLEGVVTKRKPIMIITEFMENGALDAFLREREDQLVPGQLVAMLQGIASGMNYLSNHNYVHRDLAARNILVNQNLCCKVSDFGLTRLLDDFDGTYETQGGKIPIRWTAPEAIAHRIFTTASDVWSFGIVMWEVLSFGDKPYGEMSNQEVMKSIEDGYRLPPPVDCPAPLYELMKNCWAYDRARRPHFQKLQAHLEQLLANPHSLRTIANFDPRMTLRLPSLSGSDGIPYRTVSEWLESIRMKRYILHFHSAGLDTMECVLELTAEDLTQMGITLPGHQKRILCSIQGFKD
# Outline: as §1
# RAF1 = RAF1 (Homo sapiens, UniProt P04049); conditions: RAF1, 1 μM; read-out: % control
# Chain of RAF1 (P04049 whole entry): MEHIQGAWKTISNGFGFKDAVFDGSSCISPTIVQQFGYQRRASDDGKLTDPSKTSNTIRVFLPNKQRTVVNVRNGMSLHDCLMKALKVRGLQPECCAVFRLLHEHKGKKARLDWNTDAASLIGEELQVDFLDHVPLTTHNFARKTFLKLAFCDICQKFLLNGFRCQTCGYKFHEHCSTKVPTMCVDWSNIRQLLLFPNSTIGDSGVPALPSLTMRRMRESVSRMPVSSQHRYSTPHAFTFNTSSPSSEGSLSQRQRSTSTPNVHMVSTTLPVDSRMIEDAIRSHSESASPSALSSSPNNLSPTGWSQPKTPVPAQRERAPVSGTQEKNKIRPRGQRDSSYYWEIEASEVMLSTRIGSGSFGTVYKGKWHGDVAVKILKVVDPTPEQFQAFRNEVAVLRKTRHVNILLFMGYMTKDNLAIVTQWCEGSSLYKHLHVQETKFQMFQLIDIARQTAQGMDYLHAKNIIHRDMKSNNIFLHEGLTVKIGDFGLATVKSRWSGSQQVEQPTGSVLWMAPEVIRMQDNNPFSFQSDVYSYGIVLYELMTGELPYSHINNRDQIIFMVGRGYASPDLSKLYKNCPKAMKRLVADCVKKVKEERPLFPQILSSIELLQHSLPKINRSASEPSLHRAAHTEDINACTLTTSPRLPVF
# Outline: as §1
# [2] = target: T3, RPS6KA5(Kin.Dom.1-N-terminal) (Homo sapiens, UniProt O75582); conditions: read-out: % control
# T3 construct: RPS6KA5(Kin.Dom.1-N-terminal)
# T3 sequence (O75582 49-318 limits assumed): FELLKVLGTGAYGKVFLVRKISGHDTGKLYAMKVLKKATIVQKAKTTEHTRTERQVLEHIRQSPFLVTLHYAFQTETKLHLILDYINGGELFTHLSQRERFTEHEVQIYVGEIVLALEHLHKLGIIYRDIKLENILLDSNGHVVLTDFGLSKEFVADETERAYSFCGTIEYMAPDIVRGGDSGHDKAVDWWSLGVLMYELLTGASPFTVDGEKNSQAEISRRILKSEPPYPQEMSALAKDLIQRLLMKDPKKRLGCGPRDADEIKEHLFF
# Outline: as §1
# SBK1 = target: T4, SBK1 (Homo sapiens, UniProt Q52WX2); conditions: SBK1, 1 μM; read-out: % control
# T4 construct: purchased KinomeScan® (panel service)
# T4 sequence (Q52WX2 whole entry): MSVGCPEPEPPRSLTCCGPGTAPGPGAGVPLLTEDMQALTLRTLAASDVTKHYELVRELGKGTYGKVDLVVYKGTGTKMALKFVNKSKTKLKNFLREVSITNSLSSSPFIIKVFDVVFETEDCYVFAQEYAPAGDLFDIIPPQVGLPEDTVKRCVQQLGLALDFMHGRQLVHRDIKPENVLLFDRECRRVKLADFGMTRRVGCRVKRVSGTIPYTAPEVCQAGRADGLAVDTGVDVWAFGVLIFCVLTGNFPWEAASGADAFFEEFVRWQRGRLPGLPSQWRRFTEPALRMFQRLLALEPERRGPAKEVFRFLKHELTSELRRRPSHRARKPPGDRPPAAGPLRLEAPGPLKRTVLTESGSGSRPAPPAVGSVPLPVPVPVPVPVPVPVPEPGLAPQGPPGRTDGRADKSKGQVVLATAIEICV
# Outline: as §1
# STK36 = target: T5, STK36 (Homo sapiens, UniProt Q9NRP7); conditions: STK36, 1 μM; read-out: % control
# T5 construct: purchased KinomeScan® (panel service)
# T5 sequence (Q9NRP7 1-1315): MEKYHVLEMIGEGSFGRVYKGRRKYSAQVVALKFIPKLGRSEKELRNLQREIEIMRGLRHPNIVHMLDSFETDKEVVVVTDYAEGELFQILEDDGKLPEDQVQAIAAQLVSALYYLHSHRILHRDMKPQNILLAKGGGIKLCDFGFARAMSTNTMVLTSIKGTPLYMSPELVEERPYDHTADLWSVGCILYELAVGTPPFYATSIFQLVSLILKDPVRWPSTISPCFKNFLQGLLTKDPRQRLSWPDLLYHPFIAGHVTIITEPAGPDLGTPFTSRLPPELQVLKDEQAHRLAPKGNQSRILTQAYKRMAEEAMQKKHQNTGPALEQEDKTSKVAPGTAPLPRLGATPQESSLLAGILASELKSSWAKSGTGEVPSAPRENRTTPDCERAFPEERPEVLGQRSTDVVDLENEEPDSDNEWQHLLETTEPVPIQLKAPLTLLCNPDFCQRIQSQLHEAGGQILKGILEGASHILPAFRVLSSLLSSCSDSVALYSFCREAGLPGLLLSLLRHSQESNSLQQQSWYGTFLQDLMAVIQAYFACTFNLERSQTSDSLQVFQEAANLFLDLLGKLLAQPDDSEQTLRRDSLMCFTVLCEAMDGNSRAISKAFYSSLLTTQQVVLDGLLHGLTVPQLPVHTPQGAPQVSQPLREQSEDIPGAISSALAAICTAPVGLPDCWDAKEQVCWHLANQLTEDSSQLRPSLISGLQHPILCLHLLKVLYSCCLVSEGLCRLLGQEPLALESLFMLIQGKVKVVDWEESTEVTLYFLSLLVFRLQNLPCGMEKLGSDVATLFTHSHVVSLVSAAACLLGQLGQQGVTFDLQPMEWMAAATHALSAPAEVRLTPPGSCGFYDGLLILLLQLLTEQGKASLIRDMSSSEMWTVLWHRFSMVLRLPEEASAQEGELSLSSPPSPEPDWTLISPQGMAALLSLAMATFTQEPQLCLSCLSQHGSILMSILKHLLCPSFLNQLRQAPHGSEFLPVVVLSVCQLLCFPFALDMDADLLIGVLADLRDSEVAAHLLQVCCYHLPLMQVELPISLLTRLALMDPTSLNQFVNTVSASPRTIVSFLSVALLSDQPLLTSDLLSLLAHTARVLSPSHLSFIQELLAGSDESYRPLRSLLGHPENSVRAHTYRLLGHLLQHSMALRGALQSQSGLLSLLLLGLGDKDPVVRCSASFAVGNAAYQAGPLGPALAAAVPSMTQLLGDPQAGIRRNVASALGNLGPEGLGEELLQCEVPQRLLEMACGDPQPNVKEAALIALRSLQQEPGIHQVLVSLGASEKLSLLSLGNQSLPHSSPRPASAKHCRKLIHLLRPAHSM
# Outline: as §1
# T1 sequence (P00519 whole entry F317L): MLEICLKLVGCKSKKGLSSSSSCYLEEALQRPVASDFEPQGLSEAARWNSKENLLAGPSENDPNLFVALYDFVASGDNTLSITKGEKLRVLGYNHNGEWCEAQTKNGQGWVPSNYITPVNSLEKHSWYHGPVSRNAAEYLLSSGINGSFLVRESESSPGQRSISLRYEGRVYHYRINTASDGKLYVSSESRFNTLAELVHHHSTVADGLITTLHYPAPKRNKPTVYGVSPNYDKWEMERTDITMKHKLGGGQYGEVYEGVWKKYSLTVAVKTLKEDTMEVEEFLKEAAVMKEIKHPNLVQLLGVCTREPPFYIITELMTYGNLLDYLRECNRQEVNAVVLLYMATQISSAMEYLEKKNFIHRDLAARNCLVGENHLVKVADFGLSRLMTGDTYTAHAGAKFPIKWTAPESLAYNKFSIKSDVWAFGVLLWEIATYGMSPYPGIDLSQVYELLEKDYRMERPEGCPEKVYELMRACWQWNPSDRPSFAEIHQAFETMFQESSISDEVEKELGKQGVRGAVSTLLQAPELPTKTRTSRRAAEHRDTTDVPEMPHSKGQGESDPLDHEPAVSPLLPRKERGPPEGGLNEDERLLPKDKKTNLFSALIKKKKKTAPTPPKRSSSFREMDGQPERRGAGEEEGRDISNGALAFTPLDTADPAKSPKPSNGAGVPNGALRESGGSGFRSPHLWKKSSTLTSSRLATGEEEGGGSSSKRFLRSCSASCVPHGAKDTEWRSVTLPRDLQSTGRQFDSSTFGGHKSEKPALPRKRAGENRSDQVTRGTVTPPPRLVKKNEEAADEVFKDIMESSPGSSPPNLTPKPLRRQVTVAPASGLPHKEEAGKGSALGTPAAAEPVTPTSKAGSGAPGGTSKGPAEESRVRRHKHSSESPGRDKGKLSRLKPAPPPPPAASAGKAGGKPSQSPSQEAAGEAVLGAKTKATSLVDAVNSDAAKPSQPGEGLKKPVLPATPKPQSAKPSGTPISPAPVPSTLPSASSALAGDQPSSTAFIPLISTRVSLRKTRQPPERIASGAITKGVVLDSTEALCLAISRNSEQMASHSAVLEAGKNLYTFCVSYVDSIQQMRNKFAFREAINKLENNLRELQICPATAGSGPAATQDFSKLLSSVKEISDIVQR
Compound,remaining binding at 1 µM [1] [%],remaining binding at 1 µM (EPHA1) [%],remaining binding at 1 µM (RAF1) [%],remaining binding at 1 µM [2] [%],remaining binding at 1 µM (SBK1) [%],remaining binding at 1 µM (STK36) [%]
"CNc1c(-c2cnn([C@H]3CCN(C(C)=O)C[C@@H]3F)c2)cnc2[nH]cc(Cl)c12 [Compound 77, 1-((3S,4S)-4-(4-(3-chloro-4-(methylamino)-1H-pyrrolo[2,3-b]pyridin-5-yl)-1H-pyrazol-1-yl)-3-fluoropiperidin-1-yl)ethan-1-one]",91,83,91,100,44,100
"CNc1c(-c2ccc(C(=O)N3CCC(N4CCOCC4)CC3)cc2)cnc2[nH]cc(Cl)c12 [Compound 96, (4-(3-chloro-4-(methylamino)-1H-pyrrolo[2,3-b]pyridin-5-yl)phenyl)(4-morpholinopiperidin-1-yl)methanone]",81,81,100,100,63,99
"O=C(c1ccc(-c2cnc3[nH]cc(Cl)c3c2NC2CCCC2)cc1)N1CCC(N2CCOCC2)CC1 [Compound 101, (4-(3-chloro-4-(cyclopentylamino)-1H-pyrrolo[2,3-b]pyridin-5-yl)phenyl)(4-morpholinopiperidin-1-yl)methanone]",43,76,91,90,67,96
